In data set [1] the target is α4β1 integrin (VLA-4) on Ramos cells / recombinant human VCAM-1 (extracellular domains 1–3) (Homo sapiens, UniProt P05556+P13612). The data set is described as follows: Adhesion of Ramos cells to immobilized VCAM-1 (domains 1–3). Also on record: host or cells: Ramos cells. Format: cell-based. The conditions noted are these: Ramos VCAM-1 assay; observed IC50 value ranges. An excerpt:
In Vitro Assay: Adhesion of Ramos Cells to Immobilized VCAM-1 (Domains 1–3) Preparation of VCAM-1 (Extracellular Domains 1–3)
Complementary DNA (cDNA) encoding 7-domain form of VCAM-1 (GenBank accession #M60335) was obtained using Rapid-Screen™ cDNA library panels (OriGene Technologies, Inc) at Takara Gene Analysis Center (Shiga, Japan). The primers used were 5′-CCAAGGCAGAGTACGCAAAC-3′ (sense) and 5′-TGGCAGGTATTATTAAGGAG-3′ (antisense). PCR amplification of the 3-domain VCAM-1 cDNA was perform using Pƒ. DNA polymerase (Stratagene) with the following sets of primers: (U-VCAMdl-3) 5′-CCATATGGTACCTGATCAATTTAAAATCGAGACCACCCCAGAA-3′; (L-VCAMdl-3) 5′-CCATATAGCAATCCTAGGTCCAGGGGAGATCTCAACAGTAAA-3′. PCR cycle was 94° C. for 45 sec, 55° C. for 45 sec, 72° C. for 2 min, repeating 15 cycles. After the purification of the PCR product, the fragment was digested with KpnI-AvrII. The digested fragment was ligated into pBluescript IISK(−) (Strategene), which was linearized by digesting with KpnI-XhoI. The ligation was followed by transformation to a Dam/Dcm methylase-free E. coli strain SCS110 (Strategene) to create the donor plasmid pHH7. To direct VCAM-1 molecule into the insect cell secretory pathway, the VCAM-1 coding sequence was fused to signal peptide sequence of honeybee melittin. The resulting melittin-VCAM fusion was placed in correct orientation to the baculovirus polyhedrin promoter. Baculovirus transfer vector containing first 3-domain form VCAM-1 (pH10) was constructed by ligation of 0.9 kb fragment from AvrII/Klenow/BclI digests of pH7 into SalI/Klenow/BamHI digests of pMelBacB (Invitrogen). […] The recombinant virus was amplified by infection to High-Five™ insect cells for 5–6 days, and virus titer was determined by plaque assay.
High-Five™ insect cells were pelleted in a 225 ml conical tube by centrifugation at 1000 rpm for 5 min. […] Protein concentration was determined by using Coomassie protein assay reagent (Pierce) according to the manufacture's instruction. […]
Preparation of Fluorescence Labeled Ramos Cells […]

The source of these data is US7064229B2, “Succinic acid derivatives” (Bayer Healthcare AG, priority 2001, dated 2006).

Chain of α4β1 integrin (VLA-4) on Ramos cells / recombinant human VCAM-1 (extracellular domains 1–3) (P13612 34-1032): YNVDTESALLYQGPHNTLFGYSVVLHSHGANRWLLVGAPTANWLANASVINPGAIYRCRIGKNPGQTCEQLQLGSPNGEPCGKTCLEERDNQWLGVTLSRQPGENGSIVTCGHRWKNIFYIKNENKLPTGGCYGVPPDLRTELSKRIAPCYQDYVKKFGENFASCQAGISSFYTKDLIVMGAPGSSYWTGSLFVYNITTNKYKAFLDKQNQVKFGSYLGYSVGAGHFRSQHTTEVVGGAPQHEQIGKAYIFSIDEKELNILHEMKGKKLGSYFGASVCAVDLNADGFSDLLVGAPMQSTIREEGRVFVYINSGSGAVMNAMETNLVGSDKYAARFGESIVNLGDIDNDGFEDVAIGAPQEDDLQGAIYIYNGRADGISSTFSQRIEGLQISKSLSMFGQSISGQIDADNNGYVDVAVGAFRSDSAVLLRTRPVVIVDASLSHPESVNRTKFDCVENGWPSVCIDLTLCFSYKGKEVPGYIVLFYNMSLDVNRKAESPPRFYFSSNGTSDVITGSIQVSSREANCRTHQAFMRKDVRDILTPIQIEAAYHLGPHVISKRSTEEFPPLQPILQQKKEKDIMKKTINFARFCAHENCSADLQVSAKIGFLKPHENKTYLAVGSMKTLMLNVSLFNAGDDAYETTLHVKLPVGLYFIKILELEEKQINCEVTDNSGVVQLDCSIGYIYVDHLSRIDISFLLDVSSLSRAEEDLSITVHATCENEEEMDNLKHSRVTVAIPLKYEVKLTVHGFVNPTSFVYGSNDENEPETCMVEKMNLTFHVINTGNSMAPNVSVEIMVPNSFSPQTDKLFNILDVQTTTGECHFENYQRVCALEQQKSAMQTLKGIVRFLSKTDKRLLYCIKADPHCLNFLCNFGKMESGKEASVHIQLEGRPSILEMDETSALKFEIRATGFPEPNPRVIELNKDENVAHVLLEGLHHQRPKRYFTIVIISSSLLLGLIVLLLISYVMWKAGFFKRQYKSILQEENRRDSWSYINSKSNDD
Chain of α4β1 integrin (VLA-4) on Ramos cells / recombinant human VCAM-1 (extracellular domains 1–3) (P05556 21-798): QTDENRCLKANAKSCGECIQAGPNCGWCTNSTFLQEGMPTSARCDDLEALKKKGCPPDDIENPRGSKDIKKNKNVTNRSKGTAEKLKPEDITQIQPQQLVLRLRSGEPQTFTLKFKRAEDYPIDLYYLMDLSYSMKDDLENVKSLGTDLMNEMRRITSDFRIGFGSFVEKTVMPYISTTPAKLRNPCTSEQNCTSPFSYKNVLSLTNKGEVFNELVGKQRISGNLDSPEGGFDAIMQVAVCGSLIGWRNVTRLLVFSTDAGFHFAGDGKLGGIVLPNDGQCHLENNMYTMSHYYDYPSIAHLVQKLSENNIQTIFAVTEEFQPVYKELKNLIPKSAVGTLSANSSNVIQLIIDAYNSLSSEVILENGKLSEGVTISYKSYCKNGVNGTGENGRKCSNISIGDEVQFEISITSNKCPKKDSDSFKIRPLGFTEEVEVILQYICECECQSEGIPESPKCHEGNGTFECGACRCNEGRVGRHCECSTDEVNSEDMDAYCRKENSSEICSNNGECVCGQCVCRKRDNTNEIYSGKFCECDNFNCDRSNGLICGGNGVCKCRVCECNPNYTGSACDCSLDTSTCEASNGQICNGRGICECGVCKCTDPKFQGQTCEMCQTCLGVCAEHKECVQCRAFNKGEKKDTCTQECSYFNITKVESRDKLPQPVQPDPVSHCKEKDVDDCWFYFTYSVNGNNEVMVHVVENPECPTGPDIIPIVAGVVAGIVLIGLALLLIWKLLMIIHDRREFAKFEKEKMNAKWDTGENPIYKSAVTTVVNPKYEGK

By melting point is commonly meant the temperature of the solid-liquid transition. What is called IC50 is the concentration that inhibits the measured activity by half. In the case of `Cc1ccccc1NC(=O)Nc1ccc(NC(=O)C(CC(=O)Nc2ccc(C(=O)O)cc2)c2ccccc2)cc1` (centres unmarked) [Example 1, 4-[(4-{[4-({[(2-Methylphenyl)amino]carbonyl}amino)phenyl]-amino}-4-oxo-3-phenylbutanoyl)amino]benzoic acid], the melting point stood at 169 °C. Also, the IC50 in data set [1] is less than 1 µM.

Consider `Cc1ccccc1NC(=O)Nc1ccc(NC(=O)CC(C(=O)Nc2ccc(C(=O)O)cc2)c2ccccc2)cc1` (centres unmarked) [Example 2, 4-[(4-{[4-({[(2-Methyl-phenyl)amino]carbonyl}-ami-no)phenyl]amino}-4-oxo-2-phenyl-butanoyl)amino]benzoic acid], for which, in data set [1], the half-inhibitory concentration (IC50) was greater than 10 µM.

`Cc1ccccc1NC(=O)Nc1ccc(CNC(=O)CC(C(=O)Nc2ccc(C(=O)O)cc2)c2ccccc2)cc1` (centres unmarked) [Example 4, 4-[(4-{[4-({[(2-Methyl-phenyl)amino]carbonyl}-ami-no)benzyl]amino}-4-oxo-2-phenyl-butanoyl)-ami-no]benzoic acid] yielded a melting point of 126 °C. Moreover, the concentration for half-maximal inhibition (IC50) in data set [1] is less than 1 µM.
